Entries after “also recorded” stand apart in the source; their conditions may differ.
Columns and labels:
[1] = test system: hyaloid vasculature in zebrafish; test: Zebrafish developmental angiogenesis assay: number of primary branches of hyaloid vasculature on dissected lens; assay type: in vivo; conditions: 10 μM, treated day 1-5, analysed 5 dpf
Source text: We have used the zebrafish model as an in vivo screen for chemical libraries as the small size and transparency of the zebra fish enables high-content screens in multi-well plate formats (MacRae and Peterson, 2003; Pichler et al., 2003; Peterson et al., 2004; den Hertog, 2005; Zon and Peterson, 2005). […] To identify anti-angiogenic drugs we used a transgenic line of zebrafish that expresses a fluorescent reporter (EGFP) specifically in vasculature (Tg(fli1:efgp)). This line was obtained from the Zebrafish International Resource Center. Our assay involved screening the effect of drugs in the library on the development of blood vessels in zebrafish. Specifically, we looked at the integrity of vessels developing in the eye (hyaloid vessels attached to the lens) and in the trunk.
All experiments were carried out under ethical approval granted by the UCD animal research ethics committee. Tg(fli1:EGFP) zebrafish were maintained according to standard procedures on a 14 hr light/10 hr dark cycle at 28° C. Referring to the schematic of FIG. 1A, embryos were obtained by natural spawning and developmental stages established by time and morphological criteria. A chemical library containing numerous compounds was screened (FIG. 1A). In this specific example, the chemical library contained 5000 compounds of the DIVERSet™ collection from ChemBridge Corp., USA. At 24 hours post fertilisation (hpf), 5 embryos per well were placed in […] of Embryo Medium/1% DMSO and incubated with drug at 28° C. on a 14 h light/10 h dark cycle. Larvae were euthanised, and fixed in 4% PFA at 4° C. overnight before analysis. (FIG. 1A).
Right lenses were dissected from the larvae and transferred to depression slides for observation under epi-fluorescence in the Olympus SZX16 and to cover-slip bottom Petri-dishes for confocal microscopy in a Zeiss UV510 META LSM system (20× and 40× inverted objectives). To achieve appropriate orientation, lenses were embedded in 10% methyl-cellulose and manipulated with a tungsten needle (0.5 mm diameter). Patterning of the hyaloid vessels on the treated larval lenses was compared to DMSO controls and the archetypal pattern previously described (Alvarez et al., 2007; Alvarez et al., 2009). The number of primary vessels radiating from the back of the lens (3-4 main branches at 5 dpf in controls and previously described), was counted and the average number was graphed for each drug. From screens of ˜1600 small molecules, four “hits” that inhibited the number of primary hyaloids vessels were identified (FIG. 1B).
To validate the “hits” from the library screen, dose-dependence experiments were conducted by screening the drugs in the assay described in Example 2 above but at a range of increasing concentrations between 1-10 μM. Larvae were maintained under the drug treatments at 28° C. on 14 hr light/10 hr dark cycle until 5 days post fertilisation (dpf), when they were euthanised and fixed in 4% PFA at 4° C. overnight before analysis. The average number of primary hyaloids branches was graphed for each concentration of drug. […] One of the lead compounds identified by the screen of chemical library was 11B which has the chemical name 2-[2-2-quinolinyl)vinyl]phenol and its structure shown below: […]

[2] = test system: dermal-derived normal human microvascular endothelial cells (HMVEC-d); test: In vitro HMVEC-d tube formation assay on Matrigel; assay type: cell-based; conditions: 100 nM, 20 hr
Description: HMVEC-d were purchased from Clonetics, San Diego, Calif., USA. Cells were maintained in complete Endothelial Cell Medium (Clonetics® EGM®-2-MV BulletKit®) containing 500 ml of Endothelial Cell Basal Medium-2 and supplemented with hEGF, 0.5 ml; Hydrocortisone, 0.2 ml; GA-1000, 0.5 ml; FBS, 25 ml; VEGF, 0.5 ml; hFGF-B, 2.0 ml; R3-IGF-1, 0.5 ml; Ascorbic Acid, 0.5 ml in a 37° C. humidified atmosphere of 5% CO2/95% air. HMVEC-d were used for experiments between passages 4-8.
Matrigel (Becton Dickenson) basement membrane matrix was used to examine HMVEC-d tube formation. Matrigel (50 μl) was plated in 96 well culture plate wells after thawing on ice and allowed to polymerise at 37° C. 5% CO2 humidified atmosphere for 1 hr. HMVEC-d were removed from culture, trypsinised, and resuspended in full strength EGM growth medium. Cells were seeded at a density of 50×10^4 cells/cm^2 and incubated for 20 hr at 37° C. 5% CO2 humidified atmosphere. Endothelial cell tubule formation was assessed using phase contrast microscopy and photographed. A connecting branch between two discrete ECs was counted as one tube. The tube analysis was determined from 3 sequential fields (magnification×10) focusing on the surface of the matrigel.

[3] = test system: mouse model of oxygen induced retinopathy (OIR); test: Mouse oxygen-induced retinopathy (OIR) model of ocular neovascularisation; assay type: in vivo; conditions: 2 μg/μl, postnatal day 12-17, intravitreal
Description: To assess the ability of compound 11B to inhibit ocular neovascularisation in mammalian eyes, 11B was tested in the mouse model of oxygen induced retinopathy (OIR). […] 11B was injected intravitreally into a mouse model of oxygen-induced retinopathy (OIR). The OIR model was generated by placing postnatal day 7 (P7) mouse pups into hyperoxia (75% oxygen) for 5 days and then removing them to normoxia (21%) on postnatal day 12 (P12). The hyperoxic (high oxygen) environment causes retinal blood vessels to regress between P7 and P12. The normoxic environment on P12 is a relatively hypoxic (low oxygen) environment for the mice and causes the growth of new blood vessels (angiogenesis). For all samples, eyes were enucleated, fixed, flat mounted and then stained with an isolectin antibody to visualise the blood vessels. Blood vessels were quantified and those treated with lead compounds compared to controls.

Which “number of primary branches of hyaloid vasculature” value (from here on “number”) [1] does the source give for `COc1cc2c(cc1OC)C(c1ccc3c(c1)OCO3)N(C)CC2` (racemic) [11F-522, 1-(1,3-benzodioxol-5-yl)-6,7-dimethoxy-2-methyl-1,2,3,4-tetrahydroisoquinoline] here?
Its value is “inhibited developmental angiogenesis; also recorded: significant (p<0.05) reduction; also recorded: significant inhibition; also recorded: significantly reduce”.

Which “number” value [1] does the source give for `COc1cc2c(cc1OC)[C@@H](c1ccc3c(c1)OCO3)N(C)CC2` (single isomer, unassigned) [11F-522R] here?
The value was “significant (p<0.05) reduction; also recorded: significantly reduce”.

With `COc1cc2c(cc1OC)[C@H](c1ccc3c(c1)OCO3)N(C)CC2` (single isomer, unassigned) [11F-522S] as the compound, how does the “number” value [1] read?
The value was “did not reduce”.

Which “number” value [1] does the source give for `Oc1ccc(/C=C\c2ccnc3ccccc23)cc1` [11B-799, 4-[2-(4-quinolinyl)vinyl]phenol] here?
Its value is “inhibits developmental angiogenesis; also recorded: significant inhibition”.

“Avastin: clinically used anti-angiogenic monoclonal antibody, anti-VEGF [reference compound]” was tested. Which “inhibition of HMVEC-d tubule formation” value [2] did it give?
Its value is “significantly inhibited”.

What about the “avascular area of the retina in treated eyes” value [3] of the same compound?
Its value is about 22%.

Reference: patent US8916586B2, “Anti-angiogenic compound” (University College Dublin—National University of Ireland, …, priority 2011, dated 2014)
